The target in assay [1] is T1, Replicase polyprotein 1ab (Severe acute respiratory syndrome coronavirus 2, UniProt P0DTD1).
Assay [2] concerns the target T1, Replicase polyprotein 1ab. Nature of the assay: The enzymatic inhibition assay.
Experimental: The enzymatic inhibition assay was carried out with a final concentration of 100 nM recombinant SARS-CoV-2 Mpro and 20 μM FRET substrate. […] The initial velocities were calculated from the first 1 min of each reaction curve. The IC50 values were calculated using a dose-response model in GraphPad Prism 8.0 software. All experiments were performed in triplicate, and the values are presented as mean ± standard deviation (SD).
For assay [3], the target named is T1, Replicase polyprotein 1ab. Nature of the assay: scanning fluorimetry assay of HPAEpiC cells.
Experimental: The differential scanning fluorimetry (DSF) assay was carried out on a CFX96 real-time PCR Detection System (Bio-Rad). […] The Mpro protein (final concentration: 2 μM) was pre-incubated with 40 μM of compounds for 30 min. […] The melt temperature (Tm) was calculated by using a Boltzmann model in GraphPad Prism 8.0 software. The thermal shift (ΔTm) was calculated using the equation ΔTm=Tm(compound)-Tm(DMSO). All experiments were performed in triplicate, and the values are presented as mean ± SD. HPAEpiC cells are used.

The structures appear in SMILES notation. Several values for one entry are separate records, joined by “and”; a condition that tells them apart may be missing. Equal entries are not always repeated.

Regarding `CC1(C)[C@@H]2[C@H](C(=O)N[C@H](C=O)C[C@@H]3CCNC3=O)N(C(=O)COc3ccc4ccccc4c3)C[C@@H]21` [11b], the EC50 in assay [1] was 75 nM. Further, in assay [2], the IC50 was 52 nM and 27 nM.

Molecule `CC1(C)[C@@H]2[C@H](C(=O)N[C@H](C=O)C[C@@H]3CCNC3=O)N(C(=O)c3ccc4ccccc4c3)C[C@@H]21` [MI-01] returned an IC50 in assay [2] of 453 nM.

In assay [2], `CC1(C)[C@@H]2[C@H](C(=O)N[C@H](C=O)C[C@@H]3CCNC3=O)N(C(=O)CCc3cccc(F)c3)C[C@@H]21` [MI-03] had an IC50 of 17 nM.

For `CC1(C)[C@@H]2[C@H](C(=O)N[C@H](C=O)C[C@@H]3CCNC3=O)N(C(=O)COc3cc(F)cc(F)c3)C[C@@H]21` [MI-04], the IC50 in assay [2] amounted to 19 nM.

The molecule `CC1(C)[C@@H]2[C@H](C(=O)N[C@H](C=O)C[C@@H]3CCNC3=O)N(C(=O)COc3ccc(F)c(F)c3)C[C@@H]21` [MI-05] showed an IC50 in assay [2] of 13 nM.

As to `COc1ccc(OCC(=O)N2C[C@H]3[C@@H]([C@@H]2C(=O)N[C@H](C=O)C[C@@H]2CCNC2=O)C3(C)C)cc1OC` [MI-06], half-maximal inhibition in assay [2] (IC50) was put at 15 nM.

With `CC1(C)[C@@H]2[C@H](C(=O)N[C@H](C=O)C[C@@H]3CCNC3=O)N(C(=O)COc3ccc(C(F)(F)F)cc3)C[C@@H]21` [MI-07], it took 43 nM to reach half-maximal inhibition in assay [2] (IC50).

In turn, `COc1ccc(OCC(=O)N2C[C@H]3[C@@H]([C@@H]2C(=O)N[C@H](C=O)C[C@@H]2CCNC2=O)C3(C)C)cc1F` [MI-08] gave an IC50 in assay [2] of 37 nM.

The molecule `CC1(C)[C@@H]2[C@H](C(=O)N[C@H](C=O)C[C@@H]3CCNC3=O)N(C(=O)COc3ccc(Cl)c(Br)c3)C[C@@H]21` [MI-10] registered an IC50 in assay [2] of 51 nM.

The molecule `CC1(C)[C@@H]2[C@H](C(=O)N[C@H](C=O)C[C@@H]3CCNC3=O)N(C(=O)COc3ccc(Br)cc3Cl)C[C@@H]21` [MI-11] came in with an IC50 in assay [2] of 13 nM.

For `CC1(C)[C@@H]2[C@H](C(=O)N[C@H](C=O)C[C@@H]3CCNC3=O)N(C(=O)COc3ccc(Cl)cc3)C[C@@H]21` [MI-12], the figures for the EC50 in assay [1] and in assay [3] were 97 nM and 7.3 nM, respectively. In assay [2], this molecule gave an IC50 of 19 nM.

As for `CC1(C)[C@@H]2[C@H](C(=O)N[C@H](C=O)C[C@@H]3CCNC3=O)N(C(=O)COc3ccc(Cl)c(Cl)c3)C[C@@H]21` [MI-13], inhibition in assay [2] was half-maximal at 12 nM (IC50).

With `CC1(C)[C@@H]2[C@H](C(=O)N[C@H](C=O)C[C@@H]3CCNC3=O)N(C(=O)COc3ccc(Cl)cc3Cl)C[C@@H]21` [MI-14], the results for the EC50 in assay [1] and in assay [3] were 85 nM and 0.3 nM, respectively. For the same molecule, half-maximal inhibition in assay [2] (IC50) was put at 13 nM.

The molecule `O=C[C@H](C[C@@H]1CCNC1=O)NC(=O)[C@H]1[C@@H]2CCC[C@H]2CN1C(=O)c1cccnc1` [MI-15] came in with an IC50 in assay [2] of 749 nM.

In assay [2], `O=C[C@H](C[C@@H]1CCNC1=O)NC(=O)[C@H]1[C@@H]2CCC[C@H]2CN1C(=O)c1cc2ccccc2[nH]1` [MI-16] came in with an IC50 of 153 nM.

On to `O=C[C@H](C[C@@H]1CCNC1=O)NC(=O)[C@H]1[C@@H]2CCC[C@H]2CN1C(=O)c1cc2ccccn2n1` [MI-17], for which the IC50 in assay [2] worked out at 299 nM.

In turn, `O=C[C@H](C[C@@H]1CCNC1=O)NC(=O)[C@H]1[C@@H]2CCC[C@H]2CN1C(=O)/C=C/c1ccccc1` [MI-18] registered an IC50 in assay [2] of 526 nM.

Regarding `COc1ccc(/C=C/C(=O)N2C[C@@H]3CCC[C@H]3[C@@H]2C(=O)N[C@H](C=O)C[C@@H]2CCNC2=O)c(OC)c1` [MI-19], in assay [2], inhibition was half-maximal at 196 nM (IC50).

With `CNc1ccc(/C=C/C(=O)N2C[C@@H]3CCC[C@H]3[C@@H]2C(=O)N[C@H](C=O)C[C@@H]2CCNC2=O)cc1` [MI-20], in assay [2], inhibition was half-maximal at 375 nM (IC50).

In assay [2], `O=C[C@H](C[C@@H]1CCNC1=O)NC(=O)[C@H]1[C@@H]2CCC[C@H]2CN1C(=O)CCc1ccc(F)c(F)c1` [MI-22] yielded an IC50 of 17 nM.

On to `CN(C)c1ccc(CCC(=O)N2C[C@@H]3CCC[C@H]3[C@@H]2C(=O)N[C@H](C=O)C[C@@H]2CCNC2=O)cc1` [MI-24], for which the IC50 in assay [2] stood at 378 nM.

Regarding `COc1ccc(OCC(=O)N2C[C@@H]3CCC[C@H]3[C@@H]2C(=O)N[C@H](C=O)C[C@@H]2CCNC2=O)cc1` [MI-25], the midpoint of inhibition in assay [2], the IC50, lay at 36 nM.

In assay [2], `COc1ccc(OC(C)C(=O)N2C[C@@H]3CCC[C@H]3[C@@H]2C(=O)N[C@H](C=O)C[C@@H]2CCNC2=O)cc1` (stereo partly specified) [MI-26] displayed an IC50 of 69 nM.

Turning to `O=C[C@H](C[C@@H]1CCNC1=O)NC(=O)[C@H]1[C@@H]2CCC[C@H]2CN1C(=O)COc1ccc2c(c1)OCCO2` [MI-27], the IC50 in assay [2] was found to be 94 nM.

For `O=C[C@H](C[C@@H]1CCNC1=O)NC(=O)[C@H]1[C@@H]2CCC[C@H]2CN1C(=O)COc1ccc(Cl)cc1` [MI-28], the results for the EC50 in assay [1] and in assay [3] were 42 nM and 2.2 nM, respectively.

For the molecule `O=C[C@H](C[C@@H]1CCNC1=O)NC(=O)[C@H]1[C@@H]2CCC[C@H]2CN1C(=O)COc1ccc(Cl)cc1F` [MI-29], in assay [2], the IC50 is 35 nM.

Consider `O=C[C@H](C[C@@H]1CCNC1=O)NC(=O)[C@H]1[C@@H]2CCC[C@H]2CN1C(=O)COc1ccc(Cl)c(Cl)c1` [MI-31], for which the results for the EC50 in assay [1] and in assay [3] were 62 nM and 0.4 nM, respectively. The IC50 in assay [2] came out at 30 nM.

In assay [2], `Cc1cc(Cl)ccc1OCC(=O)N1C[C@@H]2CCC[C@H]2[C@@H]1C(=O)N[C@H](C=O)C[C@@H]1CCNC1=O` [MI-32] registered an IC50 of 20 nM.

(Values after BindingDB's records for doi:10.1126/science.abf1611 (Sichuan University, 2021).)
